Assays:
GSPT1 = target: T1, GSPT1 (Homo sapiens, UniProt P15170+Q96SW2); experiment: Western-blot assay, substrate protein degradation in hPBMCs: GSPT1; assay type: cell-based; conditions: compounds at 50 nM and 500 nM, 24 hours
T1 construct: effects of the compounds of the present disclosure on the expression of target proteins in cells; endogenous in cells; host or cells: human PBMCs (hPBMCs)

WEE1 = target: T2, WEE1 (Homo sapiens, UniProt P30291+Q96SW2); experiment: Western-blot assay, substrate protein degradation in hPBMCs: WEE1; assay type: cell-based; conditions: compounds at 50 nM and 500 nM, 24 hours
T2 construct: effects of the compounds of the present disclosure on the expression of target proteins in cells; endogenous in cells; host or cells: human PBMCs (hPBMCs)
T2 sequence (P30291 whole entry): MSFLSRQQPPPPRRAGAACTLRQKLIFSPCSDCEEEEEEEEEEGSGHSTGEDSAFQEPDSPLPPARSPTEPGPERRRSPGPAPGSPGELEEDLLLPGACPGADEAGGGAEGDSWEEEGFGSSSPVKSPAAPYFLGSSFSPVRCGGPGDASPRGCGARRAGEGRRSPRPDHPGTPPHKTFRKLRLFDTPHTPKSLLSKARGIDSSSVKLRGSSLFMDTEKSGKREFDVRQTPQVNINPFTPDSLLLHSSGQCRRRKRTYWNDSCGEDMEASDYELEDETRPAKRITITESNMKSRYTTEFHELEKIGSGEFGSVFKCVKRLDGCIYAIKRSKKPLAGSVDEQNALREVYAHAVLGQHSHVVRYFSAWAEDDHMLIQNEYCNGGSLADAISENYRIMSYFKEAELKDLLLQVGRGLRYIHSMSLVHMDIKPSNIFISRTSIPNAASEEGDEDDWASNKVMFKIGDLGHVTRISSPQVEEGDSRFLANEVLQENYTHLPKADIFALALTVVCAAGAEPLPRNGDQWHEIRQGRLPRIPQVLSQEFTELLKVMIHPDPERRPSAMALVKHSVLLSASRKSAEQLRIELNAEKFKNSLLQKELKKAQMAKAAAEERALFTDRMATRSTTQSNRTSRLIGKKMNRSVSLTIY
T2 sequence (Q96SW2 whole entry): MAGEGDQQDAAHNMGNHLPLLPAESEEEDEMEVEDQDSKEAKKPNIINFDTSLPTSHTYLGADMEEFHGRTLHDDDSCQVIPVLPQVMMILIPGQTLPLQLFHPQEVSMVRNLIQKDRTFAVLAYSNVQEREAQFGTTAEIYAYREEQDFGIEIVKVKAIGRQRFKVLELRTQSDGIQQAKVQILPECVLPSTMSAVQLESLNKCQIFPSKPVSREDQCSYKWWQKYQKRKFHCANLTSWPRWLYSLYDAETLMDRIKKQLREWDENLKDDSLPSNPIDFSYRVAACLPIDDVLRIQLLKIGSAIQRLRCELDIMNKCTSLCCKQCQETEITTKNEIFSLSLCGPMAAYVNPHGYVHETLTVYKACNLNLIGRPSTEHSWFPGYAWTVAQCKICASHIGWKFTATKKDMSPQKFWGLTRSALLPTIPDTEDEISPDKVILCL
T2 sequence (Q16531 whole entry partner): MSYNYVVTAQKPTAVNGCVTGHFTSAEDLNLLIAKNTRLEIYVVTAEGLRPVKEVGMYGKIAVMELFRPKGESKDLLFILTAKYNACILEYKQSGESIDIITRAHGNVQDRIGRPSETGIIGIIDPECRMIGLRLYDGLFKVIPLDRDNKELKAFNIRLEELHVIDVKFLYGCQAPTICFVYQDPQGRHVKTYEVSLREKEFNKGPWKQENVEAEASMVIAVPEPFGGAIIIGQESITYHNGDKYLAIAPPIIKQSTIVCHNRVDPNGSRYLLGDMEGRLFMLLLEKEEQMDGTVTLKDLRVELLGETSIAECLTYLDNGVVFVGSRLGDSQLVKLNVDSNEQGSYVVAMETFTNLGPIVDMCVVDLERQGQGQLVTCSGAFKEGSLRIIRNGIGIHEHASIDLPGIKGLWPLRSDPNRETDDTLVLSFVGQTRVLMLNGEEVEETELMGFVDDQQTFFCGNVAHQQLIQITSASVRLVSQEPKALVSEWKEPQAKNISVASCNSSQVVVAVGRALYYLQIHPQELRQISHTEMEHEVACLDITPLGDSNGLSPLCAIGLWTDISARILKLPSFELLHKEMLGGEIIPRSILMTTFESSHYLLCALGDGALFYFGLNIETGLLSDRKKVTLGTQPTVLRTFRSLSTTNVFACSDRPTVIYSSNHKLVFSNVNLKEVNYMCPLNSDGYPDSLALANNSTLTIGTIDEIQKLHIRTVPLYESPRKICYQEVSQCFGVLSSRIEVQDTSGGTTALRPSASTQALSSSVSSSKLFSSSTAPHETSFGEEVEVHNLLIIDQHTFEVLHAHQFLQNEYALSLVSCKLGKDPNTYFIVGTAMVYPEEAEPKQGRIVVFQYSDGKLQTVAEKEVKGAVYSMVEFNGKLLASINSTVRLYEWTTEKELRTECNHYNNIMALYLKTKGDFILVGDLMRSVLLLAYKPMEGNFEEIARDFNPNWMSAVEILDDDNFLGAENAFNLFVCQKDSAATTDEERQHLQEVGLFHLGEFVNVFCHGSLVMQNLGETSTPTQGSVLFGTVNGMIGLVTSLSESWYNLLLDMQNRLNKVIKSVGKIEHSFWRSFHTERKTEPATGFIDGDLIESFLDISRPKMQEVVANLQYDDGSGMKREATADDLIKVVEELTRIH

CK1α = target: T3, CK1α (Homo sapiens, UniProt P48729+Q96SW2); experiment: Western-blot assay, substrate protein degradation in hPBMCs: CK1α; assay type: cell-based; conditions: compounds at 50 nM and 500 nM, 24 hours
T3 construct: effects of the compounds of the present disclosure on the expression of target proteins in cells; endogenous in cells; host or cells: human PBMCs (hPBMCs)
T3 sequence (P48729 whole entry): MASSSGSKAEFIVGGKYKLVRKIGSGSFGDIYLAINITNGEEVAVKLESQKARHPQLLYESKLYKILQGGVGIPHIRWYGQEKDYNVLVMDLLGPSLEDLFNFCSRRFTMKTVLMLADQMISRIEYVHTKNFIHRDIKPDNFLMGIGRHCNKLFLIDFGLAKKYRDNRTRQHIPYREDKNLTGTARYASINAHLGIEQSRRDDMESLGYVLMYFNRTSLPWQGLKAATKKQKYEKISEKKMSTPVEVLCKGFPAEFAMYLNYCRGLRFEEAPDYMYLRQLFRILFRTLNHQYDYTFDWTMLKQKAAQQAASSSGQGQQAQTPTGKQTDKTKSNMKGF
T3 sequence (Q96SW2 whole entry): as the sequence (Q96SW2 whole entry) above
T3 sequence (Q16531 whole entry partner): as the sequence (Q16531 whole entry partner) above

IKZF3 = target: T4, IKZF3 (Homo sapiens, UniProt Q96SW2+Q9UKT9); experiment: Western-blot assay, substrate protein degradation in hPBMCs: IKZF3; assay type: cell-based; conditions: compounds at 50 nM and 500 nM, 24 hours
T4 construct: effects of the compounds of the present disclosure on the expression of target proteins in cells; endogenous in cells; host or cells: human PBMCs (hPBMCs)
T4 sequence (Q9UKT9 whole entry): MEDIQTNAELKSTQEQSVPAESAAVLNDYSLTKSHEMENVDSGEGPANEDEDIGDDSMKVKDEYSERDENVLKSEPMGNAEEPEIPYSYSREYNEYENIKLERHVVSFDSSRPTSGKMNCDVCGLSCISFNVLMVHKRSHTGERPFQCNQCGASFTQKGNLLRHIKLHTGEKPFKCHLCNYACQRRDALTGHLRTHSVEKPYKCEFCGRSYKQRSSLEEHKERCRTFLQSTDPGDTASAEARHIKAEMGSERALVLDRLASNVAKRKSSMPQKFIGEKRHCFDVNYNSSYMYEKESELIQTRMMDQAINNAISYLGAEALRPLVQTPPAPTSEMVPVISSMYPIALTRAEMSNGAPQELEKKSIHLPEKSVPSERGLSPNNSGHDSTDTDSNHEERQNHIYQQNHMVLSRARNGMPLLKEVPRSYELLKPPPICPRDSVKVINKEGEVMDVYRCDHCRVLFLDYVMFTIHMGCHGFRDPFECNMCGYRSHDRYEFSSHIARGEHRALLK
T4 sequence (Q96SW2 whole entry): as the sequence (Q96SW2 whole entry) above
T4 sequence (Q16531 whole entry partner): as the sequence (Q16531 whole entry partner) above

MM.1S = experiment: Cell viability assay (CellTiter-Meiluncell Luminescent), tumor cell proliferation, MM.1S; conditions: Homo sapiens, MM1.S, 96 h, read-out: inhibitory activity (IC50, nM) against tumor cells proliferation, MM.1S
IKZF1 = target: T5, IKZF1 (Homo sapiens, UniProt Q13422+Q96SW2); experiment: Western-blot assay, substrate protein degradation in hPBMCs: IKZF1; assay type: cell-based; conditions: compounds at 50 nM and 500 nM, 24 hours
T5 construct: effects of the compounds of the present disclosure on the expression of target proteins in cells; endogenous in cells; host or cells: human PBMCs (hPBMCs)
T5 sequence (Q13422 whole entry): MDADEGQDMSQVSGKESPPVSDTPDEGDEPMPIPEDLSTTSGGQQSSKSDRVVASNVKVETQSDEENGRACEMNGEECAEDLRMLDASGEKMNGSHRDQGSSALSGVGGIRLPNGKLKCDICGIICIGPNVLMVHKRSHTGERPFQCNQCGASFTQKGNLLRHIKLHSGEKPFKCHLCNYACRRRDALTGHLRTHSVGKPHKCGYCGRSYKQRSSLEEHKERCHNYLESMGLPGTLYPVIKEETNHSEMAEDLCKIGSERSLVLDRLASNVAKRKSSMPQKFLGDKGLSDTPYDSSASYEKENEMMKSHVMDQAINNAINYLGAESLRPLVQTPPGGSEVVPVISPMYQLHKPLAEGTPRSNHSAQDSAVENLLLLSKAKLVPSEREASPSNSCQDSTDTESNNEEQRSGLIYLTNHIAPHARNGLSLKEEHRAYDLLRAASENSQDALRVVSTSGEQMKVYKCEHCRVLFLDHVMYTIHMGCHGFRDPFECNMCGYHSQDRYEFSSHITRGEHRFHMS
T5 sequence (Q96SW2 whole entry): as the sequence (Q96SW2 whole entry) above
T5 sequence (Q16531 whole entry partner): as the sequence (Q16531 whole entry partner) above

IKZF2 = target: T6, IKZF2 (Homo sapiens, UniProt Q96SW2+Q9UKS7); experiment: Western-blot assay, substrate protein degradation in hPBMCs: IKZF2; assay type: cell-based; conditions: compounds at 50 nM and 500 nM, 24 hours
T6 construct: effects of the compounds of the present disclosure on the expression of target proteins in cells; endogenous in cells; host or cells: human PBMCs (hPBMCs)

T1 sequence (P15170 whole entry): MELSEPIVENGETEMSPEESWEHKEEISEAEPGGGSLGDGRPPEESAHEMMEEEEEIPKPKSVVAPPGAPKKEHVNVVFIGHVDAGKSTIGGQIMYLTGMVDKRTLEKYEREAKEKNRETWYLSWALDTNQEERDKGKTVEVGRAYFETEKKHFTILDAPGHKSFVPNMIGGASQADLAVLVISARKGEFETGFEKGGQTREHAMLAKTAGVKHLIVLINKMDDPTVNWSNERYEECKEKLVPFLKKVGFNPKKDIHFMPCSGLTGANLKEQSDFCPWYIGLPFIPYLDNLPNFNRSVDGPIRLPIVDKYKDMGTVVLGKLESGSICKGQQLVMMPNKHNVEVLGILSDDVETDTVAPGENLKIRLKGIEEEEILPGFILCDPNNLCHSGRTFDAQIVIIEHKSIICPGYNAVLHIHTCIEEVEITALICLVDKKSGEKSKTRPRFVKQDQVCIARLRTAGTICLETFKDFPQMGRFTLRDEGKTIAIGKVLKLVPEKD
T1 sequence (Q96SW2 whole entry): as the sequence (Q96SW2 whole entry) above
T1 sequence (Q16531 whole entry partner): as the sequence (Q16531 whole entry partner) above

Row | Structure (SMILES) | GSPT1 substrate protein remaining % (GSPT1) | WEE1 substrate protein remaining % (WEE1) | CK1α substrate protein remaining % (CK1α) | IKZF3 substrate protein remaining % (IKZF3) | IC50 (MM.1S) [nM] | IKZF1 substrate protein remaining % (IKZF1) | IKZF2 substrate protein remaining % (IKZF2)
1 | O=C1CCN(N2Cc3cc(CN4CCN(c5cccc(Cl)n5)CC4)ccc3C2=O)C(=O)N1 [GT-05126, 1-(5-((4-(6-chloropyridin-2-yl)piperazin-1-yl)methyl)-1-oxoisoindolin-2-yl)dihydropyrimidine-2,4(1H,3H)-dione] | A ("A" is defined as 0% ≤ substrate protein remaining % ≤ 80%) | A ("A" is defined as 0% ≤ substrate protein remaining % ≤ 80%) | A ("A" is defined as 0% ≤ substrate protein remaining % ≤ 80%) | A ("A" is defined as 0% ≤ substrate protein remaining % ≤ 80%) | 300 to 500 | A ("A" is defined as 0% ≤ substrate protein remaining % ≤ 80%) | A ("A" is defined as 0% ≤ substrate protein remaining % ≤ 80%)
2 | O=C1CCN(N2Cc3cc(CN4CCN(c5ccc(Cl)cn5)CC4)ccc3C2=O)C(=O)N1 [GT-05127, 1-(5-((4-(5-chloropyridin-2-yl)piperazin-1-yl)methyl)-1-oxoisoindolin-2-yl)dihydropyrimidine-2,4(1H,3H)-dione] | A ("A" is defined as 0% ≤ substrate protein remaining % ≤ 80%) | A ("A" is defined as 0% ≤ substrate protein remaining % ≤ 80%) | A ("A" is defined as 0% ≤ substrate protein remaining % ≤ 80%) | A ("A" is defined as 0% ≤ substrate protein remaining % ≤ 80%) | 500 to 1000 | A ("A" is defined as 0% ≤ substrate protein remaining % ≤ 80%) | B ("B" is defined as 80%< substrate protein remaining %≤ 100%)
3 | O=C1CCN(N2Cc3cc(CN4C[C@@H]5C[C@H]4CN5c4cccc(Cl)c4Cl)ccc3C2=O)C(=O)N1 [GT-05163, 1-(5-(((1S,4S)-5-(2,3-dichlorophenyl)-2,5-diazabicyclo[2.2.1]heptan-2-yl)methyl)-1-oxoisoindolin-2-yl)dihydropyrimidine-2,4(1H,3H)-dione] | A ("A" is defined as 0% ≤ substrate protein remaining % ≤ 80%) | B ("B" is defined as 80%< substrate protein remaining %≤ 100%) | B ("B" is defined as 80%< substrate protein remaining %≤ 100%) | A ("A" is defined as 0% ≤ substrate protein remaining % ≤ 80%) | 500 to 1000 | A ("A" is defined as 0% ≤ substrate protein remaining % ≤ 80%) | A ("A" is defined as 0% ≤ substrate protein remaining % ≤ 80%)
4 | O=C1CCN(N2Cc3cc(CN4CCC(c5c[nH]c6cc(F)ccc56)CC4)ccc3C2=O)C(=O)N1 [GT-05164, 1-(5-((4-(6-fluoro-1H-indol-3-yl)piperidin-1-yl)methyl)-1-oxoisoindolin-2-yl)dihydropyrimidine-2,4(1H,3H)-dione] | A ("A" is defined as 0% ≤ substrate protein remaining % ≤ 80%) | B ("B" is defined as 80%< substrate protein remaining %≤ 100%) | B ("B" is defined as 80%< substrate protein remaining %≤ 100%) | B ("B" is defined as 80%< substrate protein remaining %≤ 100%) | 100 to 300 | A ("A" is defined as 0% ≤ substrate protein remaining % ≤ 80%) | A ("A" is defined as 0% ≤ substrate protein remaining % ≤ 80%)
5 | O=C1CCN(N2Cc3cc(CN4CCC(N5CCc6cc(F)ccc65)CC4)ccc3C2=O)C(=O)N1 [GT-05165, 1-(5-((4-(5-fluoroindolin-1-yl)piperidin-1-yl)methyl)-1-oxoisoindolin-2-yl)dihydropyrimidine-2,4(1H,3H)-dione] | A ("A" is defined as 0% ≤ substrate protein remaining % ≤ 80%) | B ("B" is defined as 80%< substrate protein remaining %≤ 100%) | B ("B" is defined as 80%< substrate protein remaining %≤ 100%) | B ("B" is defined as 80%< substrate protein remaining %≤ 100%) | 500 to 1000 | B ("B" is defined as 80%< substrate protein remaining %≤ 100%) | A ("A" is defined as 0% ≤ substrate protein remaining % ≤ 80%)
6 | O=C1CCN(N2Cc3cc(CN4CC=C(c5ccnc6cc(F)ccc56)CC4)ccc3C2=O)C(=O)N1 [GT-05166, 1-(5-((4-(7-fluoroquinolin-4-yl)-3,6-dihydropyridin-1(2H)-yl)methyl)-1-oxoisoindolin-2-yl)dihydropyrimidine-2,4(1H,3H)-dione] | A ("A" is defined as 0% ≤ substrate protein remaining % ≤ 80%) | A ("A" is defined as 0% ≤ substrate protein remaining % ≤ 80%) | B ("B" is defined as 80%< substrate protein remaining %≤ 100%) | A ("A" is defined as 0% ≤ substrate protein remaining % ≤ 80%) | 100 to 300 | A ("A" is defined as 0% ≤ substrate protein remaining % ≤ 80%) | A ("A" is defined as 0% ≤ substrate protein remaining % ≤ 80%)
7 | Cn1cc(C2=CCN(Cc3ccc4c(c3)CN(N3CCC(=O)NC3=O)C4=O)CC2)c2ccc(F)cc21 [GT-05167, 1-(5-((4-(6-fluoro-1-methyl-1H-indol-3-yl)-3,6-dihydropyridin-1(2H)-yl)methyl)-1-oxoisoindolin-2-yl)dihydropyrimidine-2,4(1H,3H)-dione] | A ("A" is defined as 0% ≤ substrate protein remaining % ≤ 80%) | A ("A" is defined as 0% ≤ substrate protein remaining % ≤ 80%) | B ("B" is defined as 80%< substrate protein remaining %≤ 100%) | A ("A" is defined as 0% ≤ substrate protein remaining % ≤ 80%) | 10 to 50 | A ("A" is defined as 0% ≤ substrate protein remaining % ≤ 80%) | A ("A" is defined as 0% ≤ substrate protein remaining % ≤ 80%)
8 | O=C1CCN(N2Cc3cc(CN4CC(=C5CCOc6cc(F)ccc65)C4)ccc3C2=O)C(=O)N1 [GT-05168, 1-(5-((3-(7-fluorochroman-4-ylidene)azetidin-1-yl)methyl)-1-oxoisoindolin-2-yl)dihydropyrimidine-2,4(1H,3H)-dione] | A ("A" is defined as 0% ≤ substrate protein remaining % ≤ 80%) | B ("B" is defined as 80%< substrate protein remaining %≤ 100%) | B ("B" is defined as 80%< substrate protein remaining %≤ 100%) | A ("A" is defined as 0% ≤ substrate protein remaining % ≤ 80%) | 100 to 300 | B ("B" is defined as 80%< substrate protein remaining %≤ 100%) | B ("B" is defined as 80%< substrate protein remaining %≤ 100%)
9 | O=C1CCN(N2Cc3cc(CN4CC(N5CCc6cc(F)ccc65)C4)ccc3C2=O)C(=O)N1 [GT-05169, 1-(5-((3-(5-fluoroindolin-1-yl)azetidin-1-yl)methyl)-1-oxoisoindolin-2-yl)dihydropyrimidine-2,4(1H,3H)-dione] | A ("A" is defined as 0% ≤ substrate protein remaining % ≤ 80%) | B ("B" is defined as 80%< substrate protein remaining %≤ 100%) | B ("B" is defined as 80%< substrate protein remaining %≤ 100%) | A ("A" is defined as 0% ≤ substrate protein remaining % ≤ 80%) | 100 to 300 | B ("B" is defined as 80%< substrate protein remaining %≤ 100%) | A ("A" is defined as 0% ≤ substrate protein remaining % ≤ 80%)
10 | O=C1CCN(N2Cc3cc(CN4CC=C(c5nccc(Cl)c5Cl)CC4)ccc3C2=O)C(=O)N1 [GT-06392, 1-(5-((3,4-dichloro-3',6'-dihydro-[2,4'-bipyridin]-1'(2'H)-yl)methyl)-1-oxoisoindolin-2-yl)dihydropyrimidine-2,4(1H,3H)-dione] | A ("A" is defined as 0% ≤ substrate protein remaining % ≤ 80%) | A ("A" is defined as 0% ≤ substrate protein remaining % ≤ 80%) | A ("A" is defined as 0% ≤ substrate protein remaining % ≤ 80%) | A ("A" is defined as 0% ≤ substrate protein remaining % ≤ 80%) | 300 to 500 | B ("B" is defined as 80%< substrate protein remaining %≤ 100%) | A ("A" is defined as 0% ≤ substrate protein remaining % ≤ 80%)

From patent publication EP4722207A1, “OXOISOINDOLINYL-SUBSTITUTED TETRAHYDROPYRIMIDINEDIONE DERIVATIVE AND USE THEREOF” (Gluetacs Therapeutics (Shanghai) Co., Ltd., priority 2023, dated 2024)
